target: T1, Endothelin-1 receptor (Bos taurus, UniProt P21450); test: Binding activity to ET-A receptor on bovine lung membrane was determined; format: tissue-based
T1 sequence (P21450 whole entry): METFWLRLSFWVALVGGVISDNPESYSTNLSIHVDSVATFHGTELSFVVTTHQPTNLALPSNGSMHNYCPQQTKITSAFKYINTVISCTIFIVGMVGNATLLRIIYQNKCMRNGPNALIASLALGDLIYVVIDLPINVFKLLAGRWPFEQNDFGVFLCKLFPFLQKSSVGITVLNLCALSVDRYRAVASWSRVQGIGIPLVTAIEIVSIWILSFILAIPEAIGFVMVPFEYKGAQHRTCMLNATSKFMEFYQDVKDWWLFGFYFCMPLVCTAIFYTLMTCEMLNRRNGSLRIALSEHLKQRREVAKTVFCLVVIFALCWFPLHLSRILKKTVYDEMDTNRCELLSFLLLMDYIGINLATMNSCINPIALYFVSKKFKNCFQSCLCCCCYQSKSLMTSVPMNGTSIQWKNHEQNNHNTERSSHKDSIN

Compound | IC50 [µM]
CC[C@H](C)[C@H](NC(=O)[C@@H](NC(=O)[C@H](CC(=O)O)NC(=O)[C@H](CCC(N)=O)NC(=O)[C@H](Cc1c[nH]cn1)NC(=O)[C@H](C)NC(=O)[C@H](Cc1ccccc1)NC(=O)[C@H](Cc1ccc(O)cc1)NC(=O)[C@H](CC(C)C)NC(=O)[C@H](Cc1c[nH]c2ccccc12)NC(=O)[C@@H]1CC(=O)NCC(=O)N[C@@H](CC(N)=O)C(=O)N[C@@H](Cc2c[nH]c3ccccc23)C(=O)N[C@@H](Cc2c[nH]cn2)C(=O)NCC(=O)N[C@@H]([C@@H](C)O)C(=O)N[C@@H](C)C(=O)N2CCC[C@H]2C(=O)N1)C(C)C)C(=O)N[C@@H](Cc1c[nH]c2ccccc12)C(=O)O | > 0.1
C[C@@H]1NC(=O)[C@H]([C@@H](C)O)NC(=O)CNC(=O)[C@H](Cc2c[nH]cn2)NC(=O)[C@H](Cc2c[nH]c3ccccc23)NC(=O)[C@H](CC(N)=O)NC(=O)CNC(=O)C[C@@H](C(=O)N[C@@H](Cc2c[nH]c3ccccc23)C(=O)N[C@@H](Cc2ccccc2)C(=O)N[C@@H](Cc2ccccc2)C(=O)N[C@@H](CC(N)=O)C(=O)N[C@@H](Cc2ccc(O)cc2)C(=O)N[C@@H](Cc2ccc(O)cc2)C(=O)N[C@@H](Cc2c[nH]c3ccccc23)C(=O)O)NC(=O)[C@@H]2CCCN2C1=O | > 5
CC[C@H](C)[C@H](NC(=O)[C@H](CC(=O)O)NC(=O)[C@H](CC(C)C)NC(=O)[C@H](Cc1c[nH]cn1)NC(=O)[C@H](C)NC(=O)[C@H](Cc1ccc(O)cc1)NC(=O)[C@H](Cc1ccc(O)cc1)NC(=O)[C@@H](NC(=O)[C@H](Cc1c[nH]c2ccccc12)NC(=O)[C@@H]1CC(=O)NCC(=O)N[C@@H](CC(N)=O)C(=O)N[C@@H](Cc2c[nH]c3ccccc23)C(=O)N[C@@H](Cc2c[nH]cn2)C(=O)NCC(=O)N[C@@H]([C@@H](C)O)C(=O)N[C@@H](C)C(=O)N2CCC[C@H]2C(=O)N1)C(C)C)C(=O)N[C@H](C(=O)N[C@@H](Cc1c[nH]c2ccccc12)C(=O)O)[C@@H](C)CC | > 0.1
CC[C@H](C)[C@H](NC(=O)[C@H](CC(=O)O)NC(=O)[C@H](CC(C)C)NC(=O)[C@H](Cc1c[nH]cn1)NC(=O)[C@H](C)NC(=O)[C@H](Cc1ccccc1)NC(=O)[C@H](Cc1ccc(O)cc1)NC(=O)[C@@H](NC(=O)[C@H](Cc1c[nH]c2ccccc12)NC(=O)[C@@H]1CC(=O)NCC(=O)N[C@@H](CC(N)=O)C(=O)N[C@@H](Cc2c[nH]c3ccccc23)C(=O)N[C@@H](Cc2c[nH]cn2)C(=O)NCC(=O)N[C@@H]([C@@H](C)O)C(=O)N[C@@H](C)C(=O)N2CCC[C@H]2C(=O)N1)C(C)C)C(=O)N[C@H](C(=O)N[C@@H](Cc1c[nH]c2ccccc12)C(=O)O)[C@@H](C)CC | > 0.1

target: T2, Endothelin receptor type B (Bos taurus, UniProt P28088); test: Binding activity to ET-B receptor on bovine cerebellum membrane; format: tissue-based
T2 sequence (P28088 whole entry): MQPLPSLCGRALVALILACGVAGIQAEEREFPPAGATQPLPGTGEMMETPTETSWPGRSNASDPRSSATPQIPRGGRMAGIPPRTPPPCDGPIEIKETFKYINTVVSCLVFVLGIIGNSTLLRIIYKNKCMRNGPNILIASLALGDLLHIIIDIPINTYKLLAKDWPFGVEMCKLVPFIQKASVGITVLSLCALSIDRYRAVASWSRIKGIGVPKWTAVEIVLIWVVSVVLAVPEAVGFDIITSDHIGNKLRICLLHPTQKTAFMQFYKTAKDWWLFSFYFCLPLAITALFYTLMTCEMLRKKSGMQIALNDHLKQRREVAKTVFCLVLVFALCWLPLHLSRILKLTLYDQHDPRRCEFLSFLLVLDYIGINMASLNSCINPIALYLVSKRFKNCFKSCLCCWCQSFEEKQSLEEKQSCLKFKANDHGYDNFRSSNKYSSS

IC50 [µM] | Compound
3 | H-LYFCHQDVIW-OH
3 | H-VYYCHLDIIW-OH
3 | H-WFFNYYW-OH
5 | C[C@H](NC(=O)[C@@H](NC(=O)CNC(=O)[C@H](Cc1c[nH]cn1)NC(=O)[C@H](Cc1c[nH]c2ccccc12)NC(=O)[C@H](CC(N)=O)NC(=O)CN)[C@@H](C)O)C(=O)N1CCC[C@H]1C(=O)N[C@@H](CC(=O)O)C(=O)N[C@@H](Cc1c[nH]c2ccccc12)C(=O)N[C@@H](Cc1ccccc1)C(=O)N[C@@H](Cc1ccccc1)C(=O)N[C@@H](CC(N)=O)C(=O)N[C@@H](Cc1ccc(O)cc1)C(=O)N[C@@H](Cc1ccc(O)cc1)C(=O)N[C@@H](Cc1c[nH]c2ccccc12)C(=O)O

Compound | IC50 [µM]
H-VYFSHLDIIW-OH | 1
C[C@@H]1NC(=O)[C@H]([C@@H](C)O)NC(=O)CNC(=O)[C@H](Cc2c[nH]cn2)NC(=O)[C@H](Cc2c[nH]c3ccccc23)NC(=O)[C@H](CC(N)=O)NC(=O)CNC(=O)[C@H](Cc2c[nH]c3ccccc23)NC(=O)[C@H](Cc2ccc(O)cc2)NC(=O)[C@H](Cc2ccc(O)cc2)NC(=O)[C@H](CC(N)=O)NC(=O)[C@H](Cc2ccccc2)NC(=O)[C@H](Cc2ccccc2)NC(=O)[C@H](Cc2c[nH]c3ccccc23)NC(=O)[C@H](CC(=O)O)NC(=O)[C@@H]2CCCN2C1=O | > 5
CC[C@H](C)[C@H](NC(=O)[C@H](CC(=O)O)NC(=O)[C@H](CC(C)C)NC(=O)[C@H](Cc1cnc[nH]1)NC(=O)[C@@H]1CSSC[C@H](N)C(=O)N[C@@H](CO)C(=O)N[C@H]2CSSC[C@H](NC(=O)[C@H](CCC(=O)O)NC(=O)[C@H](CCCCN)NC(=O)[C@H](CC(=O)O)NC(=O)[C@H](CCSC)NC(=O)[C@H](CC(C)C)NC(=O)[C@H](CO)NC(=O)[C@H](CO)NC2=O)C(=O)N[C@@H](C(C)C)C(=O)N[C@@H](Cc2ccc(O)cc2)C(=O)N[C@@H](Cc2ccccc2)C(=O)N1)C(=O)N[C@H](C(=O)N[C@@H](Cc1c[nH]c2ccccc12)C(=O)O)[C@@H](C)CC [ENDOTHELIN] | 1
